US20110251160A1 (priority 2008, published 2011)
Read-outs that look alike come from different tables or passages of the source.

Tests used:
[1] = test system: patients with atrial fibrillation at risk of stroke
From the text: Median follow-up was 2.0 years and the primary outcome was stroke or systemic embolism.
Patients were recruited from 951 clinical centers in 44 countries. In brief, patients were eligible if they had atrial fibrillation documented on electrocardiogram at screening or within 6 months; and at least one of the following: prior stroke or transient ischemic attack; left ventricular ejection fraction less than 40%; New York Heart Association heart failure symptoms of Class 2 or greater within 6 months; age at least 75 years; or age at least 65 years with diabetes mellitus, hypertension or coronary artery disease.
The time in therapeutic range was calculated by the method of Rosendaal (Rosendaal F R, et al., A method to determine the optimal intensity of oral anticoagulant therapy, Thromb Haemost, 1993, 69:236-239), excluding INRs from the first week and after discontinuations. […] Concomitant use of aspirin (less than 100 mg/day) or other antiplatelet agents was allowed.
Liver function testing was performed monthly during the first year of follow-up.
The primary study outcome was stroke or systemic embolism. The primary safety outcome was major hemorrhage. Secondary outcomes were stroke, systemic embolism and death. Other outcomes were myocardial infarction, pulmonary embolism, transient ischemic attacks, and hospitalizations. The primary net benefit-risk outcome was the composite of stroke, systemic embolism, pulmonary embolism, myocardial infarction, death or major hemorrhage. Stroke was defined as sudden onset of focal neurological deficit consistent with the territory of a major cerebral artery and categorized as ischemic, hemorrhagic or unspecified. Hemorrhagic transformation of ischemic stroke was not considered as hemorrhagic stroke. Intracranial hemorrhage included hemorrhagic stroke and sub-dural or sub-arachnoid hemorrhage. Systemic embolism was an acute vascular occlusion of an extremity or organ documented by imaging, surgery or autopsy. Major bleeding was defined as a reduction in hemoglobin level of at least […] or transfusion of at least 2 units of blood or symptomatic bleeding in a critical area or organ. Life-threatening bleeding was a subset of major bleeding that included fatal bleeding, symptomatic intracranial bleeding, bleeding with hemoglobin decrease of more than […] or requiring transfusion of more than 4 units of blood or requiring inotropic agents or necessitating surgery. All other bleeding was considered minor.
All primary and secondary outcome events were blindly and doubly adjudicated. An international team of adjudicators reviewed documents in local languages after blinding; or documents were translated by a independent group and blinded centrally. All transient ischemic attacks were reviewed to ensure that strokes had not been missed. To detect possible unreported events, symptom questionnaires were regularly administered to patients, and adverse events and hospitalization reports were scrutinized for unreported primary or secondary outcomes.
If maximum of the two p-values was greater than 0.025, the minimum of the two p-values must be less than 0.0125, one-sided, to claim statistical significance. All analyses were based on intention-to-treat.

AF patients [2] = conditions: SPORTIF III (2003), cited from earlier work
AF patients [3] = conditions: SPORTIF V (2005), cited from earlier work
AF patients [4] = conditions: ACTIVE W (2006), warfarin arm; cited from earlier work
[5] = test system: patients who have nonvalvular atrial fibrillation; conditions: VKAs, such as warfarin; cited from earlier work
[6] = ximelagatran 36 mg b.i.d. vs. warfarin

In the case of `CC(=O)CC(c1ccccc1)c1c(O)c2ccccc2oc1=O` (racemic) [Warfarin, 3-(α-acetonylbenzyl)4-hydroxycoumarin, reference compound], the “ALT or AST > 3xULN” value ([1]; Warfarin arm) is reported as “(2.1) %”, the “ALT or AST > 3xULN with concurrent bilirubin > 2xULN” value ([1]; Warfarin arm) is reported as “(0.4) %” and the “Adverse Event: Arthralgia” value ([1]; Warfarin arm) is reported as “(5.5) %”. The “Adverse Event: Atrial fibrillation” value ([1]; Warfarin arm) was “(5.4) %”, the “Adverse Event: Back pain” value ([1]; Warfarin arm) was “(5.5) %” and the “Adverse Event: Chest pain” value ([1]; Warfarin arm) was “(5.7) %”. For the same molecule, the “Adverse Event: Cough” value ([1]; Warfarin arm) was “(5.8) %”, the “Adverse Event: Diarrhea” value ([1]; Warfarin arm) was “(5.5) %” and the “Adverse Event: Dizziness” value ([1]; Warfarin arm) was “(9.3) %”. The “Adverse Event: Dyspepsia” value ([1]; Warfarin arm) was “(1.4) %”, the “Adverse Event: Dyspnoea” value ([1]; Warfarin arm) was “(9.2) %” and the “Adverse Event: Fatigue” value ([1]; Warfarin arm) was “(5.9) %”. For the same molecule, the “Adverse Event: Nasopharyngitis” value ([1]; Warfarin arm) was “(5.5) %”, the “Adverse Event: Peripheral edema” value ([1]; Warfarin arm) was “(7.6) %” and the “Adverse Event: Upper respiratory tract infection” value ([1]; Warfarin arm) was “(5.0) %”. For the same molecule, the “Adverse Event: Urinary tract infection” value ([1]; Warfarin arm) was “(5.3) %”, the “All Death, Rate” value ([1]; Warfarin arm) was 4.13 /100 Person Years and the “Any Major Bleeding, Rate” value ([1]; Warfarin arm) was 3.46 /100 Person Years. For the same molecule, the “Extracranial Bleeding, Rate” value ([1]; Warfarin arm) was 2.73 /100 Person Years, the “First Hospitalization, Rate” value ([1]; Warfarin arm) was 27.5 /100 Person Years and the “Intracranial Bleeding, Rate” value ([1]; Warfarin arm) was 0.72 /100 Person Years. For the same molecule, the “Life threatening bleeding, Rate” value ([1]; Warfarin arm) was 1.80 /100 Person Years, the “Major gastro-intestinal Bleeding, Rate” value ([1]; Warfarin arm) was 1.03 /100 Person Years and the “Major or Minor Bleeding, Rate” value ([1]; Warfarin arm) was 23.92 /100 Person Years. For the same molecule, the “Minor Bleeding, Rate” value ([1]; Warfarin arm) was 21.03 /100 Person Years, the “Myocardial Infarction, Rate” value ([1]; Warfarin arm) was 0.54 /100 Person Years and the “Non-disabling Stroke Modified Rankin 0-2, Rate” value ([1]; Warfarin arm) was 0.58 /100 Person Years. For the same molecule, the “Other Major bleeding, Rate” value ([1]; Warfarin arm) was 1.80 /100 Person Years, the “Pulmonary embolism, Rate” value ([1]; Warfarin arm) was 0.09 /100 Person Years and the “Reason for discontinuation: Gastrointestinal bleeding” value ([1]; Warfarin arm) was “(0.9) %”. The “Reason for discontinuation: Gastrointestinal disorders” value ([1]; Warfarin arm) was “(0.8) %”, the “Reason for discontinuation: Outcome event” value ([1]; Warfarin arm) was “(2.2) %” and the “Reason for discontinuation: Patient decision” value ([1]; Warfarin arm) was “(6.2) %”. For the same molecule, the “Reason for discontinuation: SAE” value ([1]; Warfarin arm) was “(1.6) %”, the “Stroke or systemic embolism, Rate” value ([1]; Warfarin arm) was 1.70 /100 Person Years and the “Stroke, Hemorrhagic, Rate” value ([1]; Warfarin arm) was 0.38 /100 Person Years. The “Stroke, Rate” value ([1]; Warfarin arm) was 1.58 /100 Person Years, the “Study Drug Discontinuation At one year” value ([1]; Warfarin arm) was “(10) %” and the “Study Drug Discontinuation At two years” value ([1]; Warfarin arm) was “(19) %”. The “Vascular Death, Rate” value ([1]; Warfarin arm) was 2.69 /100 Person Years, the “hepatobiliary disorders (AE)” value ([1]; Warfarin arm) was “(2.2) %” and the “hepatobiliary disorders (SAE)” value ([1]; Warfarin arm) was “(0.4) %”. For the same molecule, the “Study Drug Discontinuation At one year” value ([1]; Warfarin arm, listed as warfarin) was 10%, the “Stroke, systemic embolism, pulmonary embolism, myocardial infarction death or major bleed, Rate” value ([1]; net benefit, Warfarin arm) was 7.99 /100 Person Years and the “Mortality rate, death from any cause” value ([1]; warfarin) was 4.13 % per year. For the same molecule, the “Rate of discontinuation at 2.5 years” value ([1]; warfarin) was 19%, the “Rate of hemorrhagic stroke” value ([1]; warfarin) was 0.38 % per year and the “Rate of major hemorrhage / major bleeding” value ([1]; warfarin) was 3.46 % per year. The “Rate of myocardial infarction” value ([1]; warfarin) was 0.54 % per year, the “Rate of net benefit-risk outcome (major vascular events, major bleeding and death)” value ([1]; warfarin) was 7.99 % per year and the “Rate of the primary outcome, stroke or systemic embolism” value ([1]; warfarin) was 1.70 % per year. The “Stroke and systemic embolism (per 100 patient years)” value (AF patients [2]; [6]) was 2.3%, the “Myocardial Infarction” value (AF patients [2]; ximelagatran vs. warfarin) was 0.6% and the “Stroke and systemic embolism (per 100 patient years)” value (AF patients [3]; [6]) was 1.2%. For the same molecule, the “Myocardial Infarction” value (AF patients [3]; ximelagatran vs. warfarin) was 1.4%, the “Myocardial Infarction” value (AF patients [4]) was 0.6% and the “Stroke and systemic embolism (per 100 patient years)” value (AF patients [4]) was 1.5%. For the same molecule, the “Reduction of the risk of stroke compared to control” value [5] was 64%.
